Values quoted from earlier work in US10478388B2, “Skin engaging shaving aid member comprising at least one thermally resilient sensate” (The Gillette Company, priority 2012, dated 2019).

What was measured:
[1] = compared to menthol at 2 ppm
[2] = concentration where the cooling effect could be clearly recognized

SMILES	Cooling as compared to menthol [1]	Cooling threshold [2]
CC(C)[C@@H]1CC[C@@H](C)C[C@H]1C(=O)Nc1ccc(CC#N)cc1 [N-[4-(cyanomethyl)phenyl]-(1R,2S,5R)-2-isopropyl-5-methylcyclohexanecarboxamide]	about 10 ×	–
CC(C)[C@@H]1CC[C@@H](C)C[C@@H]1O [Example 1-neomenthol, 1-neomenthol]	–	about 3,000 ppb
CC(C)[C@@H]1CC[C@@H](C)C[C@@H]1O [d-neomenthol]	–	about 25,000 ppb
CC(C)[C@@H]1CC[C@@H](C)C[C@H]1O [L-menthol]	–	about 800 ppb
